The text below walks through data of paper PMC2866539, “HLA Class I Binding 9mer Peptides from Influenza A Virus Induce CD4^+ T Cell Responses” (PLoS ONE, 2010).

Where no end group is shown, it is not given here.

The subject of one assay is freshly harvested PBMC. Conditions: cited from earlier work.
Assay [1] has as its system PBMC from HLA-matched donors. The format is cell-based, human.
Assay [2] relates to PBMC from responding donors. The format is cell-based, human.
A further assay addresses DRA1*0101/DRB1*0302 (Homo sapiens, UniProt P01903+P01911, A100K/A102G/A103R/A169T/D57E/F76Y/I96L/K41T/L162R/M171V/P40S/Q125H/Q178H/Q39Y/R42S/S66N/T106N/T262R/V115G/W38E/Y61H). The assay is described as follows: biochemical. The format is binding.
The target of the next assay is T1, DRA1*0101/DRB5*0101 (Homo sapiens, UniProt P01903+Q30154).
T1 construct: made in house
As to the kind of experiment: biochemical. The format is binding.

Another assay has as its target T2, DRA1*0101/DRB1*0401 (Homo sapiens, UniProt P01903+P01911, A100K/A169T/F76Y/I96L/K127E/L162R/M171V/N62H/P40V/Q125Y/R42H/S133A/S149N/S66Y/V115G/V209L/W38E).
T2 construct: made in house
The assay is described as follows: biochemical. The format is binding.

The target of another assay is DRA1*0101/DRB3*0301 (Homo sapiens, UniProt P01903+P79483, A169T/A212P/D57E/G115V/L67V/Q178H/R103Q/R40L/Y55F). The assay is described as follows: biochemical. The format is binding.
Chain of DRA1*0101/DRB3*0301 (P01903 26-254 limits assumed): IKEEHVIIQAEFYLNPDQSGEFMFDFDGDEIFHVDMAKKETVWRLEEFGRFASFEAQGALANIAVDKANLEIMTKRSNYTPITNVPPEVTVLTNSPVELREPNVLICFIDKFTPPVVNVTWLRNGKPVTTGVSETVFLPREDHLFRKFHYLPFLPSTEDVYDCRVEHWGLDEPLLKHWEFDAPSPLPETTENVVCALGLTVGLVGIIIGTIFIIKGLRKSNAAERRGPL
Chain of DRA1*0101/DRB3*0301 (P79483 30-266 R40L/Y55F/D57E/L67V/R103Q/G115V/A169T/Q178H/A212P limits assumed): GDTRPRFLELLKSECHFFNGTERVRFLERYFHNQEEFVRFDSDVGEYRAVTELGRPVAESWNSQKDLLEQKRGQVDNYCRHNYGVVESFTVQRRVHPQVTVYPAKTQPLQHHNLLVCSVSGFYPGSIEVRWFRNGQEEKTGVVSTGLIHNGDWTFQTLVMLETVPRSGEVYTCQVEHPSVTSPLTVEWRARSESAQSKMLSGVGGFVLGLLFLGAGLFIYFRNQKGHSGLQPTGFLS
A further assay concerns the target T3, DPA1*0103/DPB1*0401 (Homo sapiens, UniProt P04440+P20036).
T3 construct: made in house
T3 sequence (P20036 32-222 limits assumed): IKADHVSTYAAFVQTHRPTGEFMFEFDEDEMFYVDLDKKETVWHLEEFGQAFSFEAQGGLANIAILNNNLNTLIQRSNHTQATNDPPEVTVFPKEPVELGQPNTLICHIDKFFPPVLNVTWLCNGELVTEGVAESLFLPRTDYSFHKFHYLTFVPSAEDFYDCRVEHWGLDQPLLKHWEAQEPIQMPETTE
T3 sequence (P04440 30-225 limits assumed): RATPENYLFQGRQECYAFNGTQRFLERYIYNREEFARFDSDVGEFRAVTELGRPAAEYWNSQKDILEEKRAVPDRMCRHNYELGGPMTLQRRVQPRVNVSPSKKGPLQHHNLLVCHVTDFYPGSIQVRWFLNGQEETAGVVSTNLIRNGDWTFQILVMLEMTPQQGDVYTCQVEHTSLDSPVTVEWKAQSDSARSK
As to the kind of experiment: biochemical. It counts as binding.

In another assay the target is DRA1*0101/DRB1*0301 (Homo sapiens, UniProt P01903+P01911, A100K/A102G/A103R/A169T/F55Y/I96L/K41T/L162R/M171V/P40S/Q125H/Q178H/Q39Y/R42S/S66N/T106N/T262R/W38E/Y61H). As to the kind of experiment: biochemical. It counts as binding.
Chain of DRA1*0101/DRB1*0301 (P01903 26-254 limits assumed, other chains not shown): as the sequence (P01903 26-254 limits assumed) above
In the next assay the target is T4, DRA1*0101/DRB1*0101 (Homo sapiens, UniProt P01903+P01911, A100R/D57E/F55L/F60I/F76Y/I96L/L162R/M171V/P40L/Q125E/R42F/V115G/Y59C).
T4 construct: made in house
The assay is described as follows: biochemical. The format is binding.

Another assay concerns the target HLA-B7 (Homo sapiens, UniProt P01889). As to the kind of experiment: biochemical. The format is binding.
In another assay the target is HLA-A3 (Homo sapiens, UniProt P04439). As to the kind of experiment: biochemical.
Chain of HLA-A3 (P04439 25-299): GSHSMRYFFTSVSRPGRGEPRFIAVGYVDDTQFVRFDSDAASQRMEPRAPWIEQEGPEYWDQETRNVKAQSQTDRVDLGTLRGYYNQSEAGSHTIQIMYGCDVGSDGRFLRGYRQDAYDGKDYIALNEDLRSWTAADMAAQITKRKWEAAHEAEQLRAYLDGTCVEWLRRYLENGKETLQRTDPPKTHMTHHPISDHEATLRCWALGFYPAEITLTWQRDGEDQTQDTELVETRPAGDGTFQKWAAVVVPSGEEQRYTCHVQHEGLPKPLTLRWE
Chain of HLA-A3 (P61769 21-119, further chain): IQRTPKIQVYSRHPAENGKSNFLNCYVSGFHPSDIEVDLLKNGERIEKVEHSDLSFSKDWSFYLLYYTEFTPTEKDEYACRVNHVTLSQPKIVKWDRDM

Chain of HLA-B7 (P01889 25-299): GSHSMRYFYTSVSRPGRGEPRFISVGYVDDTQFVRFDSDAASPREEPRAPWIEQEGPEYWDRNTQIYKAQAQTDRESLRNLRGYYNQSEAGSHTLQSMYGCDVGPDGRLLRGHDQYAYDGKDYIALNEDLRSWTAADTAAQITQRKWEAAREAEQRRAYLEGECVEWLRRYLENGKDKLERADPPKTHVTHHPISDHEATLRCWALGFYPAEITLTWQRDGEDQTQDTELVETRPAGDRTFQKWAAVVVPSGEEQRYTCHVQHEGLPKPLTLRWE
Chain of HLA-B7 (P61769 21-119, further chain): as the sequence (P61769 21-119, further chain) above

DPLVVAASI [PF-146]: the “antigenicity in ELISPOT of Assarsson et al” value in the assay on freshly harvested PBMC is “failed to show antigenicity”. Also, in [1], the “+Peptide, IFNγ spot forming cell numbers” value is listed as 42±8 per 10^5 PBMC. Also, in [2], the “SFC/1×10^5 PBMC+Peptide, IVA12” value came out at 2±2 SFC/1×10^5 PBMC; the “SFC/1×10^5 PBMC+Peptide, Isotype” value is given as 17±1 SFC/1×10^5 PBMC; the “SFC/1×10^5 PBMC+Peptide, W6/32” value was determined as 18±3 SFC/1×10^5 PBMC.

As to ETIVLLRAF [PF-113], the Kd at DRA1*0101/DRB1*0302 was over 5 µM; on DRA1*0101/DRB5*0101, 0.78 µM; at DRA1*0101/DRB1*0401 it was over 5 µM; on DRA1*0101/DRB3*0301, over 5 µM; at DPA1*0103/DPB1*0401, over 5 µM; on DRA1*0101/DRB1*0301, over 5 µM. At DRA1*0101/DRB1*0101, this sequence returned a Kd of 3.73 µM.

Regarding LPFQNVHPV [PF-150], the Kd on DRA1*0101/DRB1*0302 is over 5 µM; on DRA1*0101/DRB5*0101, 1.2 µM; at DRA1*0101/DRB1*0401 it was over 5 µM; on DRA1*0101/DRB3*0301 it was over 5 µM; on HLA-B7, 0.161 µM; at DPA1*0103/DPB1*0401, over 5 µM. Also, the equilibrium dissociation constant (Kd) on DRA1*0101/DRB1*0301 and at DRA1*0101/DRB1*0101 was over 5 µM each time.

Consider LPFHNVHPL [PF-147], for which the equilibrium dissociation constant (Kd) is over 5 µM at DRA1*0101/DRB1*0302; 3.7 µM at DRA1*0101/DRB5*0101; over 5 µM on DRA1*0101/DRB1*0401; over 5 µM on DRA1*0101/DRB3*0301; 0.006 µM at HLA-B7; over 5 µM on DPA1*0103/DPB1*0401. Further, the equilibrium dissociation constant (Kd) at DRA1*0101/DRB1*0301 and on DRA1*0101/DRB1*0101 was over 5 µM throughout.

In turn, TIHDRIPHR [PF-116] came in with a Kd at HLA-A3 of 0.062 µM.

As to “YILLKKILSSRFNQM [hypothetical protein 239–253, reference compound]”, the Kd at DRA1*0101/DRB5*0101 amounted to 0.017 µM; on DPA1*0103/DPB1*0401 it was 0.025 µM.

VTIGECPKY [PF-110]: in [1], the “+Peptide, IFNγ spot forming cell numbers” value was found to be 247±13 per 10^5 PBMC. Further, in assay [2], the “SFC/1×10^5 PBMC+Peptide, IVA12” value was found to be 5±3 SFC/1×10^5 PBMC; the “SFC/1×10^5 PBMC+Peptide, Isotype” value is 163±28 SFC/1×10^5 PBMC; the “SFC/1×10^5 PBMC+Peptide, W6/32” value came out at 165±4 SFC/1×10^5 PBMC.

Take ILWILDRLF [PF-140]: in assay [1], the “+Peptide, IFNγ spot forming cell numbers” value is reported as 17±4 per 10^5 PBMC. In assay [2], the “SFC/1×10^5 PBMC+Peptide, IVA12” value came to 1±1 SFC/1×10^5 PBMC; the “SFC/1×10^5 PBMC+Peptide, Isotype” value was determined as 32±3 SFC/1×10^5 PBMC; the “SFC/1×10^5 PBMC+Peptide, W6/32” value is 43±19 SFC/1×10^5 PBMC.

In the case of LMNELGVPF [PF-141], the dissociation constant Kd on DRA1*0101/DRB1*0302 is over 5 µM; at DRA1*0101/DRB5*0101, over 5 µM; at DRA1*0101/DRB1*0401, over 5 µM; at DRA1*0101/DRB3*0301, 4.01 µM; at DPA1*0103/DPB1*0401, over 5 µM; at DRA1*0101/DRB1*0301, over 5 µM. Besides, the equilibrium dissociation constant (Kd) on DRA1*0101/DRB1*0101 was over 5 µM.

The sequence YPRYPGVRC [PF-145] gave a dissociation constant (Kd) at HLA-B7 of 0.011 µM.

In the case of “YKYVKQNTLKLAT [HA306–318, reference compound]”, the dissociation constant (Kd) at DRA1*0101/DRB1*0302 was 0.053 µM; on DRA1*0101/DRB5*0101, 0.012 µM; on DRA1*0101/DRB1*0401, 0.015 µM; on DRA1*0101/DRB3*0301, 0.003 µM; at DPA1*0103/DPB1*0401 it was over 5 µM; on DRA1*0101/DRB1*0301, 0.026 µM. This sequence came in with a Kd on DRA1*0101/DRB1*0101 of 0.108 µM.

On to LVSLGAISF [PF-148], for which the Kd on DRA1*0101/DRB1*0302, on DRA1*0101/DRB5*0101, at DRA1*0101/DRB1*0401, on DRA1*0101/DRB3*0301, on DPA1*0103/DPB1*0401 and on DRA1*0101/DRB1*0301 was over 5 µM throughout. In addition, binding at DRA1*0101/DRB1*0101 was put at a Kd of 4.34 µM.

With IAPWYAFAL [PF-154], the Kd at DRA1*0101/DRB1*0302 is over 5 µM; on DRA1*0101/DRB5*0101, 1.7 µM; on DRA1*0101/DRB1*0401, over 5 µM; on DRA1*0101/DRB3*0301, over 5 µM; at DPA1*0103/DPB1*0401, over 5 µM; at DRA1*0101/DRB1*0301 it was over 5 µM. In addition, the Kd on DRA1*0101/DRB1*0101 was over 5 µM.

In the case of YVKQNTLKL [PF-152], the dissociation constant Kd on DRA1*0101/DRB1*0302 is 2.22 µM; at DRA1*0101/DRB5*0101, 0.405 µM; at DRA1*0101/DRB1*0401, 0.226 µM; at DRA1*0101/DRB3*0301, 0.356 µM; on HLA-B7, 0.072 µM; at DPA1*0103/DPB1*0401, over 5 µM. Also, the dissociation constant Kd at DRA1*0101/DRB1*0301 was over 5 µM; on DRA1*0101/DRB1*0101, 1.2 µM.

Take IMLKANFSV [PF-103]: the equilibrium dissociation constant (Kd) was over 5 µM at DRA1*0101/DRB1*0302; over 5 µM on DRA1*0101/DRB5*0101; 1.39 µM at DRA1*0101/DRB1*0401; 0.018 µM at DRA1*0101/DRB3*0301; over 5 µM at DPA1*0103/DPB1*0401; over 5 µM at DRA1*0101/DRB1*0301. On DRA1*0101/DRB1*0101, this sequence had a Kd of 3.43 µM.
